Results reported in patent US10500166B2, “Methods for the treatment of erectile dysfunction using fispemifene” (QUATRX PHARMACEUTICALS, priority 2007, dated 2019).

Tests used:
Type in all cases: in vivo, human
[1] = Phase I repeated dose study 101-50202: safety and tolerability
Protocol: A suitable dosage is expected to be in a range of about 5 mg/day to about 1500 mg/day. In a phase I repeated dose study, twenty-three healthy men aged 50 to 70 years received daily 10 mg, 30 mg 100 mg and 300 mg dosages of fispemifene for 28 days. […] All other adverse events were single cases. Fispemifene at the 100 and 300 mg/day dose levels increased serum total testosterone levels 32% and 75% respectively. Thus, a preferred dosage range of fispemifene to treat ED is expected to be 10 to 1000 mg/day.
Fispemifene has been studied in two phase I studies in humans—in a single dose and a repeated dose study. Effect of fispemifene on hormone levels was one main focus of the repeated dose study. The phase I repeated dose study (number 101-50202) was a randomized, double-blind, placebo-controlled 28-day dose-escalation study performed in 31 healthy, elderly men, aged 50-68 years. The main objective of the study was to investigate the tolerability, safety and pharmacokinetics of fispemifene after repeated oral doses, but the study focused also on the effects of fispemifene on serum free and total testosterone, estradiol, and other relevant hormones. The fispemifene doses 10, 30, 100 and 300 mg per day and placebo were administered once every morning as capsules containing 10 mg or 100 mg of fispemifene, or placebo.
The variables for safety and tolerability were adverse events, vital signs, 12-lead ECG, clinical laboratory evaluations, physical examination, ultrasound examinations (mammary glands) and inhibin B. For pharmacokinetics, the concentrations of fispemifene and its metabolite(s) were to be evaluated. For pharmacodynamics, serum concentrations of FSH, LH, estradiol, testosterone, SHBG, prolactin, aldosterone, cortisol and TSH before and during treatment were measured and compared with the concentrations in the placebo-group.

[2] = system: DHT (dihydrotestosterone); assay: Example 3 study in hypogonadal men: serum dihydrotestosterone (ITT); conditions: for Dihydrotestosterone, Max / Dihydrotestosterone, Mean ± SD / Dihydrotestosterone, Median / Dihydrotestosterone, Min: Baseline (Visit 2);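 for Dihydrotestosterone, Max: serum DHT concentration in pg/mL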;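 for Dihydrotestosterone, Mean ± SD: serum DHT concentration in pg/mL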;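 for Dihydrotestosterone, Median: serum DHT concentration in pg/mL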;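 for Dihydrotestosterone, Min: serum DHT concentration in pg/mL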
Protocol: (§1) A randomized, double-blind, placebo controlled, parallel-group study of once-daily doses of fispemifene (100, 200, and 300 mg/day) given for 4 weeks was conducted in a population of hypogonadal men. Subjects were required to meet all of the following inclusion criteria at screening and prior to randomization to be eligible for the study:
(§2) There were 77 subjects total. The number of subjects randomized to the 100 mg fispemifene, 200 mg fispemifene, 300 mg fispemifene, and placebo arms were 21, 21, 19, and 16, respectively.
(§3) Subjects were randomly assigned to one of four treatment groups in a 1:1:1:1 ratio: • Treatment A (100 mg): fispemifene 100 mg+placebo+placebo; • Treatment B (200 mg): fispemifene 100 mg+fispemifene 100 mg+placebo; • Treatment C (300 mg): fispemifene 100 mg+fispemifene 100 mg+fispemifene 100 mg; and • Treatment D (Placebo): placebo+placebo+placebo.
(§4) Subjects took one dose (three capsules) of study medication once a day at home for 4 weeks. Capsules were to be taken in the morning immediately after breakfast, with the exception of the morning of the Week 4 visit. Capsules were not to be taken on the morning of the Week 4 visit because trough plasma levels of fispemifene were determined by a blood sample taken at this visit. Each subject was randomly assigned to treatment with one of the 3 different dose regimens of fispemifene or placebo vehicle. Each subject received a 4 week supply of study drug.
(§5) Blood samples were taken from the subjects within 1 week prior to dosing with study drug to establish baseline values; after 2 and 4 weeks of randomization; and 2 weeks after the last dose of study drug. Serum was prepared from those samples and used to determine the mean % change from baseline in total testosterone, free testosterone, SHBG (sex hormone-binding globulin), DHT (dihydrotestosterone), E2 (estradiol), LH (luteinizing hormone), FSH (follicle stimulating hormone), and inhibin B.
(§6) 3. Percent change from baseline in SHBG, DHT, E2, LH, FSH, inhibin B, and testosterone/E2 ratio at Weeks 2, 4, and 6.

inhibin B = assay: Example 3 study in hypogonadal men: serum inhibin B (ITT); conditions: for Inhibin B % Change from Baseline to Week 2, Max / Inhibin B % Change from Baseline to Week 2, Mean ± SD / Inhibin B % Change from Baseline to Week 2, Median / Inhibin B % Change from Baseline to Week 2, Min: Week 2, (Week minus Baseline) divided by Baseline; for Inhibin B % Change from Baseline to Week 2, Max / Inhibin B % Change from Baseline to Week 2, Mean ± SD / Inhibin B % Change from Baseline to Week 2, Median / Inhibin B % Change from Baseline to Week 2, Min / Inhibin B % Change from Baseline to Week 4, Max / Inhibin B % Change from Baseline to Week 4, Mean ± SD / Inhibin B % Change from Baseline to Week 4, Median / Inhibin B % Change from Baseline to Week 4, Min / Inhibin B % Change from Baseline to Week 6, Max / Inhibin B % Change from Baseline to Week 6, Mean ± SD / Inhibin B % Change from Baseline to Week 6, Median / Inhibin B % Change from Baseline to Week 6, Min: LOCF; for Inhibin B % Change from Baseline to Week 4, Max / Inhibin B % Change from Baseline to Week 4, Mean ± SD / Inhibin B % Change from Baseline to Week 4, Median / Inhibin B % Change from Baseline to Week 4, Min: Week 4, (Week minus Baseline) divided by Baseline; for Inhibin B % Change from Baseline to Week 6, Max / Inhibin B % Change from Baseline to Week 6, Mean ± SD / Inhibin B % Change from Baseline to Week 6, Median / Inhibin B % Change from Baseline to Week 6, Min: Week 6, (Week minus Baseline) divided by Baseline
Protocol: as §1, §2, §3, §4, §5, §6

[3] = 100 mg/day, to Week 6 (2 weeks after discontinuation)
[4] = 200 mg/day, to Week 6 (2 weeks after discontinuation)
[5] = 300 mg/day, to Week 6 (2 weeks after discontinuation)

OCCOCCOc1ccc(/C(=C(/CCCl)c2ccccc2)c2ccccc2)cc1 [Fispemifene, (Z)-2-{2-[4-(4-Chloro-1,2-diphenylbut-1-enyl)phenoxy]ethoxy}ethanol]
adverse events reported more than once ([1]; 10, 30, 100 and 300 mg daily for 28 days): upper respiratory tract infection, nausea and abdominal pain | tolerability ([1]; 10, 30, 100 and 300 mg daily for 28 days, all dose levels): well tolerated | safety concerns ([1]; any dose (10-300 mg/day)): no safety concerns | Dihydrotestosterone, Max ([2]; 100 mg/day): 385.0 pg/mL | Dihydrotestosterone, Mean ± SD ([2]; 100 mg/day): 177.5 ± 88.58 pg/mL | Dihydrotestosterone, Median ([2]; 100 mg/day): 180.0 pg/mL | Dihydrotestosterone, Min ([2]; 100 mg/day): 50.0 pg/mL | Dihydrotestosterone, % Change from Baseline, Max ([2]; 100 mg/day, to Week 2): 109% | Dihydrotestosterone, % Change from Baseline, Median ([2]; 100 mg/day, to Week 2): 42% | Dihydrotestosterone, % Change from Baseline, Min ([2]; 100 mg/day, to Week 2): 0% | Dihydrotestosterone, % Change from Baseline, Max ([2]; 100 mg/day, to Week 4): 98% | Dihydrotestosterone, % Change from Baseline, Median ([2]; 100 mg/day, to Week 4): 33% | Dihydrotestosterone, % Change from Baseline, Max [2, 3]: 64% | Dihydrotestosterone, % Change from Baseline, Median [2, 3]: 19% | Dihydrotestosterone, Max ([2]; 200 mg/day): 398.0 pg/mL | Dihydrotestosterone, Mean ± SD ([2]; 200 mg/day): 185.2 ± 95.37 pg/mL | Dihydrotestosterone, Median ([2]; 200 mg/day): 168.0 pg/mL | Dihydrotestosterone, Min ([2]; 200 mg/day): 67.0 pg/mL | Dihydrotestosterone, % Change from Baseline, Max ([2]; 200 mg/day, to Week 2): 128% | Dihydrotestosterone, % Change from Baseline, Median ([2]; 200 mg/day, to Week 2): 50% | Dihydrotestosterone, % Change from Baseline, Max ([2]; 200 mg/day, to Week 4): 162% | Dihydrotestosterone, % Change from Baseline, Median ([2]; 200 mg/day, to Week 4): 61% | Dihydrotestosterone, % Change from Baseline, Max [2, 4]: 78% | Dihydrotestosterone, % Change from Baseline, Median [2, 4]: 11% | Dihydrotestosterone, Max ([2]; 300 mg/day): 294.0 pg/mL | Dihydrotestosterone, Mean ± SD ([2]; 300 mg/day): 171.6 ± 76.42 pg/mL | Dihydrotestosterone, Median ([2]; 300 mg/day): 179.0 pg/mL | Dihydrotestosterone, Min ([2]; 300 mg/day): 50.0 pg/mL | Dihydrotestosterone, % Change from Baseline, Max ([2]; 300 mg/day, to Week 2): 162% | Dihydrotestosterone, % Change from Baseline, Median ([2]; 300 mg/day, to Week 2): 65% | Dihydrotestosterone, % Change from Baseline, Min ([2]; 300 mg/day, to Week 2): 0% | Dihydrotestosterone, % Change from Baseline, Max ([2]; 300 mg/day, to Week 4): 163% | Dihydrotestosterone, % Change from Baseline, Median ([2]; 300 mg/day, to Week 4): 73% | Dihydrotestosterone, % Change from Baseline, Min ([2]; 300 mg/day, to Week 4): 0% | Dihydrotestosterone, % Change from Baseline, Max [2, 5]: 98% | Dihydrotestosterone, % Change from Baseline, Median [2, 5]: 19% | Inhibin B % Change from Baseline to Week 2, Max (inhibin B; 100 mg): 1.64 | Inhibin B % Change from Baseline to Week 2, Mean ± SD (inhibin B; 100 mg): 0.24 ± 0.493 | Inhibin B % Change from Baseline to Week 2, Median (inhibin B; 100 mg): 0.17 | Inhibin B % Change from Baseline to Week 2, Min (inhibin B; 100 mg): −0.44 | Inhibin B % Change from Baseline to Week 4, Max (inhibin B; 100 mg): 1.86 | Inhibin B % Change from Baseline to Week 4, Mean ± SD (inhibin B; 100 mg): 0.30 ± 0.631 | Inhibin B % Change from Baseline to Week 4, Median (inhibin B; 100 mg): 0.09 | Inhibin B % Change from Baseline to Week 4, Min (inhibin B; 100 mg): −0.61 | Inhibin B % Change from Baseline to Week 6, Max (inhibin B; 100 mg): 1.40 | Inhibin B % Change from Baseline to Week 6, Mean ± SD (inhibin B; 100 mg): 0.41 ± 0.572 | Inhibin B % Change from Baseline to Week 6, Median (inhibin B; 100 mg): 0.29 | Inhibin B % Change from Baseline to Week 6, Min (inhibin B; 100 mg): −0.41 | Inhibin B Actual Value at Baseline (Visit 2), Max (inhibin B; 100 mg): 191.0 pg/mL | Inhibin B Actual Value at Baseline (Visit 2), Mean ± SD (inhibin B; 100 mg): 95.1 ± 46.32 pg/mL | Inhibin B Actual Value at Baseline (Visit 2), Median (inhibin B; 100 mg): 89.0 pg/mL | Inhibin B Actual Value at Baseline (Visit 2), Min (inhibin B; 100 mg): 22.0 pg/mL | Inhibin B % Change from Baseline to Week 2, Max (inhibin B; 200 mg): 1.48 | Inhibin B % Change from Baseline to Week 2, Mean ± SD (inhibin B; 200 mg): 039 ± 0.534 | Inhibin B % Change from Baseline to Week 2, Median (inhibin B; 200 mg): 0.21 | Inhibin B % Change from Baseline to Week 2, Min (inhibin B; 200 mg): −0.22 | Inhibin B % Change from Baseline to Week 4, Max (inhibin B; 200 mg): 3.40 | Inhibin B % Change from Baseline to Week 4, Mean ± SD (inhibin B; 200 mg): 0.42 ± 0.862 | Inhibin B % Change from Baseline to Week 4, Median (inhibin B; 200 mg): 0.12 | Inhibin B % Change from Baseline to Week 4, Min (inhibin B; 200 mg): −0.44 | Inhibin B % Change from Baseline to Week 6, Max (inhibin B; 200 mg): 2.00 | Inhibin B % Change from Baseline to Week 6, Mean ± SD (inhibin B; 200 mg): 0.40 ± 0.628 | Inhibin B % Change from Baseline to Week 6, Median (inhibin B; 200 mg): 0.22 | Inhibin B % Change from Baseline to Week 6, Min (inhibin B; 200 mg): −0.34 | Inhibin B Actual Value at Baseline (Visit 2), Max (inhibin B; 200 mg): 220.0 pg/mL | Inhibin B Actual Value at Baseline (Visit 2), Mean ± SD (inhibin B; 200 mg): 105.6 ± 59.43 pg/mL | Inhibin B Actual Value at Baseline (Visit 2), Median (inhibin B; 200 mg): 95.0 pg/mL | Inhibin B Actual Value at Baseline (Visit 2), Min (inhibin B; 200 mg): 16.0 pg/mL | Inhibin B % Change from Baseline to Week 2, Max (inhibin B; 300 mg): 0.97 | Inhibin B % Change from Baseline to Week 2, Mean ± SD (inhibin B; 300 mg): 0.12 ± 0.400 | Inhibin B % Change from Baseline to Week 2, Median (inhibin B; 300 mg): 0.05 | Inhibin B % Change from Baseline to Week 2, Min (inhibin B; 300 mg): −0.42 | Inhibin B % Change from Baseline to Week 4, Max (inhibin B; 300 mg): 0.878 | Inhibin B % Change from Baseline to Week 4, Mean ± SD (inhibin B; 300 mg): 0.016 ± 0.2904 | Inhibin B % Change from Baseline to Week 4, Median (inhibin B; 300 mg): −0.012 | Inhibin B % Change from Baseline to Week 4, Min (inhibin B; 300 mg): −0.459 | Inhibin B % Change from Baseline to Week 6, Max (inhibin B; 300 mg): 0.645 | Inhibin B % Change from Baseline to Week 6, Mean ± SD (inhibin B; 300 mg): 0.004 ± 0.3349 | Inhibin B % Change from Baseline to Week 6, Median (inhibin B; 300 mg): −0.057 | Inhibin B % Change from Baseline to Week 6, Min (inhibin B; 300 mg): −0.493 | Inhibin B Actual Value at Baseline (Visit 2), Max (inhibin B; 300 mg): 334.0 pg/mL | Inhibin B Actual Value at Baseline (Visit 2), Mean ± SD (inhibin B; 300 mg): 127.3 ± 75.76 pg/mL | Inhibin B Actual Value at Baseline (Visit 2), Median (inhibin B; 300 mg): 128.0 pg/mL | Inhibin B Actual Value at Baseline (Visit 2), Min (inhibin B; 300 mg): 16.0 pg/mL
